In patent US8242148B2 (priority 2005, dated 2012):
“Also recorded” adds a separate entry of the source. Counter-ions that a name gives are not always drawn. Like-named read-outs stand apart in the source and are kept apart here.

Tests used:
[1] = Plasma pharmacokinetics of 2-pyridylacetic acid after betahistine hydrochloride (LC/MS/MS); settings: for Terminal elimination rate / Cmax: mean ± SD; for AUC(0-t) / Tmax / half-life / Cmax: plasma
Description: Blood samples for pharmacokinetic analysis were collected just prior to study drug dosing, and at 0.5, 1, 1.5, 2, 3, and 4 hours. Samples (5 ml) were collected in tubes containing EDTA and were placed on ice after gentle shaking. Samples were centrifuged within 15 min at 4° C. at 3000×g for 10 min and plasma was separated into polypropylene tubes. Plasma was stored at −70° C. until further analysis.
Plasma samples were analyzed using a validated liquid chromatography tandem mass spectroscopy (LC/MS/MS) as reported by Chen et al. with minor modifications. To 500 μL of plasma, 100 μL of 0.5 M orthophosphoric acid (H3PO4) was added. The mixed sample was extracted with 5 ml of ethyl acetate and 2-propanol mixture (97.5:2.5, v/v) and vortex-mixed thoroughly for 1 min. Sample was centrifuged at 2000×g for 10 min maintained at 4° C., the upper clear portion was carefully transferred to a glass tube and evaporated to dryness under nitrogen gas at 25° C. The residue was reconstituted with 100 μL of mobile phase and filtered using a Sep-pak® (Waters) SPE cartridges which was pre-equilibrated with mobile phase. The processed samples were analyzed using a liquid chromatography equipped with a Surveyor autosampler model Plus and a Surveyor quaternary gradient HPLC-pump (Thermo Fisher Scientific) connected to a linear ion trap-Fourier Transform LTQ-FT™ mass spectrometer operated in positive ion electrospray mode.
Plasma concentration-time profile data were used to calculate Cmax, time to achieve Cmax (Tmax), terminal elimination half-life (T1/2), area under the plasma concentration-time curve from zero to last measurable time point (AUC0-t). The half life (T1/2) was calculated as 0.693/λz, where λz is the terminal-phase elimination rate constant. AUC0-t was calculated using the linear trapezoidal rule area under the curve (AUC0-t) from time zero to the time of the last measurable concentration (CT) at 4 hrs (last measurable time point).

[2] = system: histamine H3 autoreceptors; settings: cats, oral, cited from earlier work
[3] = humans, cited from earlier work
ADHD adults [4] = assay: Heart rate and blood pressure change from baseline; assay type: in vivo, human
Excerpt: (§1) Subjects were randomly assigned to active drug, dose, and/or placebo using a modified Latin Square design. Safety measures, including vital signs, electrocardiogram, peak respiratory flow, clinical laboratory tests, and logging of adverse events were observed.
Changes from baseline in heart rate and BP were not dose dependent, nor were changes in these cardiovascular parameters by dose appreciably different from the placebo condition.

ADHD adults [5] = assay: ECG parameters (QT, QTc) after single-dose betahistine in ADHD adults; assay type: in vivo, human; settings: for QT Baseline / QTc Baseline: baseline (pre-dose); for QT 2 hours / QTc 2 hours: 2 hours post-dose
Excerpt: as §1
(§2) Those AEs which accounted for >10% of the total were headache (n=11), fatigue (n=8), somnolence (n=8) and dizziness (n=4). […] The ECG data is summarized in Table 1 and categorized as benign.
Throughout the study, two subjects experienced a conversion of their baseline ECG from normal to abnormal but not clinically significant two hours following a dose of study drug betahistine. […] Each of these abnormal ECGs were not repeated in these same subjects with other doses of betahistine.

HPA axis [6] = assay: Cortisol response / HPA axis activity in rats; assay type: in vivo, rat
Excerpt: Certain subtypes of depression have been associated with decreased function of the hypothalamic-pituitary-adrenal (HPA) axis as evidenced by low cortisol and/or decreased CRH and ACTH levels.

rats = settings: cited from earlier work
[7] = system: patients with multiple sclerosis; settings: cited from earlier work
ADHD adults [8] = assay: Continuous Performance Task (CPT) signal detection, A prime and B prime; assay type: in vivo, human
Excerpt: Subjects were randomly assigned to active drug, dose, and/or placebo using a modified Latin Square design. Safety measures, including vital signs, electrocardiogram, peak respiratory flow, clinical laboratory tests, and logging of adverse events were observed. […] Instead, the study used surrogate markers of ADHD efficacy which are widely accepted, such as the signal detection (A prime) measures from the Continuous Performance Task (CPT) and a Go-no-Go task. Improvements or enhanced signal detection for either of these tasks track well with clinical improvements measuring ADHD symptom severity and frequency. (Epstein et al., Relations Between Continuous Performance Test Performance Measures and ADHD Behaviors, J. of Abnormal Child Psych. 31:5, 543-54 (2001)). […] To reflect this design, the study was analyzed using a repeated-measures analysis of variance (ANOVA) model (in SAS version 9.2, using the MIXED procedure). Treatment (4 levels: 0, 50, 100, 200) and Period (3 levels) and their interaction were included as fixed within-subject factors. In the case of signal detection measures, measures over three repeated blocks in each of three sessions were averaged to produce a summary measure for that session. Sessions were performed prior to drug administration and at two and four hours post-administration. A third within-subject factor (time since drug administration in hours; 0, 2, and 4 hours) was included along with its interactions with the treatment and period effects. A compound-symmetry structure was assumed for the correlation pattern of the within-subject residuals (equivalent to allowing each subject to have an individual intercept term to account for correlation among repeat measures on the same subject). Principle hypothesis tests were comparisons of the average of the non-zero doses against the placebo, as well as comparisons of each individual non-zero dose versus placebo. These were performed as linear contrasts, two-sided, α=0.05.

ADHD adults [9] = assay: Satiety Quotient (surrogate marker of appetite suppression); assay type: in vivo, human; settings: RMANOVA, treatment 0, 50, 100, 200 mg
Excerpt: Instead, the study used surrogate markers of ADHD efficacy which are widely accepted, such as the signal detection (A prime) measures from the Continuous Performance Task (CPT) and a Go-no-Go task. Improvements or enhanced signal detection for either of these tasks track well with clinical improvements measuring ADHD symptom severity and frequency. (Epstein et al., Relations Between Continuous Performance Test Performance Measures and ADHD Behaviors, J. of Abnormal Child Psych. 31:5, 543-54 (2001)). […] To reflect this design, the study was analyzed using a repeated-measures analysis of variance (ANOVA) model (in SAS version 9.2, using the MIXED procedure). Treatment (4 levels: 0, 50, 100, 200) and Period (3 levels) and their interaction were included as fixed within-subject factors.

[10] = system: patients with cerebrovascular dementia; settings: placebo-controlled trials; cited from earlier work
[11] = system: adult human subjects having ADHD; settings: in vivo
Excerpt: as §1
There were 39 total adverse events (AEs) across 16 total subjects, of which 12/16 accounted for all 39 reports. Only 16/39 AEs were rated as moderate in severity. […] Of the 39 total AEs, 21/39 were judged by the investigator to be possibly related to study drug based primarily on proximity (within 3 hours) to study drug administration. Only 3/39 AEs were judged as probably related to study drug and consisted of orthostasis, drowsiness and agitation. All adverse events resolved within 24 hours of the visit and most resolved by the end of each study visit (each visit lasting 5-6 hours). One subject experienced orthostatic hypotension at 1 hour following study drug administration on two separate occasions (Visit 1 (rated as mild) and Visit 3 (rated as moderate), the later judged to be probably study drug-related.
as §2

[12] = animal studies, peripheral administration; cited from earlier work
healthy volunteers = settings: cited from earlier work
ADHD adults [13] = assay: Pulmonary function (forced expiratory volume); assay type: in vivo, human
Description: as §1
All pulmonary function readings were analyzed by a board certified pulmonologist and no report was rated clinically significant.

[14] = system: histamine release in the anterior hypothalamus; settings: rats; cited from earlier work
HPA axis [15] = settings: mice; cited from earlier work
[16] = after 100 mg betahistine hydrochloride
[17] = RMANOVA, treatment 0, 50, 100, 200 mg
[18] = RMANOVA, treatment 0, 50, 100, 200 mg, DF 3/29

Q: With `O=C(O)Cc1ccccn1` [2-pyridylacetic acid] as the molecule, how does the “Half-life and Tmax across the dose levels” value ([1]; 50, 100, 200 mg betahistine) read?
A: remained unchanged

Q: What about the Terminal elimination rate ([1]; after 50 mg betahistine hydrochloride) of the same molecule?
A: 0.43 ± 0.35 h⁻¹

Q: And the Terminal elimination rate [1, 16]?
A: 0.25 ± 0.18 h⁻¹

Q: And the Terminal elimination rate ([1]; after 200 mg betahistine hydrochloride)?
A: 0.28 ± 0.17 h⁻¹

Q: What about the AUC(0-t) ([1]; human, 50 mg) of the same molecule?
A: 1300 ± 587 ng·h/mL

Q: And the Tmax ([1]; human, 50 mg)?
A: 1.55 ± 0.44 h

Q: What about the half-life ([1]; human, 50 mg) of the same molecule?
A: 4.24 ± 1.68 h

Q: And the Cmax ([1]; human, 50 mg, Cmax, after 50 mg betahistine hydrochloride)?
A: 611 ± 490 ng/mL

Q: And the AUC(0-t) ([1]; human, 100 mg)?
A: 2780 ± 1840 ng·h/mL

Q: What about the Tmax ([1]; human, 100 mg) of the same molecule?
A: 1.3 ± 0.35 h

Q: And the half-life ([1]; human, 100 mg)?
A: 3.74 ± 1.97 h

Q: And the Cmax ([1]; human, 100 mg, Cmax, after 100 mg betahistine hydrochloride)?
A: 1040 ± 673 ng/mL

Q: What about the AUC(0-t) ([1]; human, 200 mg) of the same molecule?
A: 5250 ± 2430 ng·h/mL

Q: What about the Tmax ([1]; human, 200 mg) of the same molecule?
A: 2.05 ± 0.86 h

Q: And the half-life ([1]; human, 200 mg)?
A: 3.88 ± 3.38 h

Q: What about the Cmax ([1]; human, 200 mg, Cmax, after 200 mg betahistine hydrochloride) of the same molecule?
A: 2040 ± 905 ng/mL

Q: What about the Cmax [1, 16] of the same molecule?
A: 1043.88 ± 673.49 ng/mL

Q: Which “Dose required for rapid biological effect on histamine H3 autoreceptors” value ([2]; relative to human-equivalent 24-48 mg/day) does the source give for `CNCCc1ccccn1` [betahistine dihydrochloride] here?
A: 5 fold and 10 fold higher equivalent doses were required

Q: For `CNCCc1ccccn1.CS(=O)(=O)O.CS(=O)(=O)O` [betahistine mesylate], which Bioavailability ([3]; oral) is on record?
A: less than 1%

Q: With `CNCCc1ccccn1` [betahistine] as the molecule, how does the “Heart rate and blood pressure effects” value (ADHD adults [4]; 50, 100, 200 mg, not dose dependent) read?
A: minimal and judged as not clinically significant

Q: What about the “Change in systolic blood pressure from baseline” value (ADHD adults [4]; betahistine 50, 100, 200 mg vs placebo (FIG. 2)) of the same molecule?
A: No clinically significant change

Q: What about the “Change in diastolic blood pressure from baseline” value (ADHD adults [4]; betahistine 50, 100, 200 mg vs placebo (FIG. 3)) of the same molecule?
A: No clinically significant change

Q: What about the “ECG data, category” value (ADHD adults [5]; 50, 100, 200 mg) of the same molecule?
A: benign

Q: And the “QT Baseline” value (ADHD adults [5]; betahistine 50 mg group)?
A: 416 ± 33 ms

Q: And the “QTc Baseline” value (ADHD adults [5]; betahistine 50 mg group)?
A: 416 ± 18 ms

Q: What about the “QT 2 hours” value (ADHD adults [5]; betahistine 50 mg) of the same molecule?
A: 403 ± 26 ms

Q: What about the “QTc 2 hours” value (ADHD adults [5]; betahistine 50 mg) of the same molecule?
A: 407 ± 18 ms

Q: And the “QT Baseline” value (ADHD adults [5]; betahistine 100 mg group)?
A: 412 ± 27 ms

Q: What about the “QTc Baseline” value (ADHD adults [5]; betahistine 100 mg group) of the same molecule?
A: 409 ± 13 ms

Q: And the “QT 2 hours” value (ADHD adults [5]; betahistine 100 mg)?
A: 395 ± 37 ms

Q: And the “QTc 2 hours” value (ADHD adults [5]; betahistine 100 mg)?
A: 401 ± 14 ms

Q: What about the “QT Baseline” value (ADHD adults [5]; betahistine 200 mg group) of the same molecule?
A: 403 ± 37 ms

Q: And the “QTc Baseline” value (ADHD adults [5]; betahistine 200 mg group)?
A: 410 ± 18 ms

Q: What about the “QT 2 hours” value (ADHD adults [5]; betahistine 200 mg) of the same molecule?
A: 400 ± 34 ms

Q: What about the “QTc 2 hours” value (ADHD adults [5]; betahistine 200 mg) of the same molecule?
A: 405 ± 17 ms

Q: And the “QT and rate corrected QTc (Bazett's) change from baseline” value (ADHD adults [5]; betahistine 50, 100, 200 mg vs placebo (FIG. 1))?
A: No clinically significant change

Q: What about the “Abnormal ECGs, clinical significance” value (ADHD adults [5]; two subjects abnormal but NCS at 2 hours (200 mg, 50 mg)) of the same molecule?
A: no abnormal ECGs were read as clinically significant

Q: What about the “Cortisol response to stress” value (HPA axis [6]) of the same molecule?
A: increases the cortisol response to stress

Q: What about the “Effect on decrease in cortisol after dexamethasone administration” value (HPA axis [6]) of the same molecule?
A: counteracts the decrease in cortisol

Q: What about the Eating behavior (rats) of the same molecule?
A: decrease eating behavior in rats in a dose-dependent manner

Q: And the Symptoms of fatigue [7]?
A: statistically significant reduction

Q: What about the “APRIME_CPT, Treatment effect, Pr > F” value (ADHD adults [8]; [17]) of the same molecule?
A: 0.0254

Q: What about the “BPRIME_CPT, Treatment effect, Pr > F” value (ADHD adults [8]; [17]) of the same molecule?
A: 0.0045

Q: What about the “APRIME_CPT, Treatment effect, F Value” (ADHD adults [8]; [18]) of the same molecule?
A: 3.59

Q: What about the “BPRIME_CPT, Treatment effect, F Value” (ADHD adults [8]; [18]) of the same molecule?
A: 5.38

Q: And the “Effect on attention (CPT sensitivity and inhibition)” value (ADHD adults [8]; adults with ADHD, single doses up to 200 mg)?
A: improves attention

Q: What about the “CPT A prime, effect vs placebo” value (ADHD adults [8]; betahistine vs placebo) of the same molecule?
A: demonstrated a treatment effect compared to placebo

Q: And the “Satiety Quotient - 2 hrs, Treatment effect, Pr > F” value (ADHD adults [9])?
A: 0.4475

Q: And the “Satiety Quotient - 4 hrs, Treatment effect, Pr > F” value (ADHD adults [9])?
A: 0.8360

Q: And the “Satiety Quotient - 2 hrs, Treatment effect, F Value” (ADHD adults [9]; DF 3/21)?
A: 0.92

Q: And the “Satiety Quotient - 4 hrs, Treatment effect, F Value” (ADHD adults [9]; DF 3/21)?
A: 0.28

Q: What about the “Motor activity and cognitive functioning” value [10] of the same molecule?
A: increase motor activity and improve cognitive functioning

Q: What about the “Biologic effects on brain histamine or histamine H3 receptors” value ([2]; roughly the human dose (48 mg/day)) of the same molecule?
A: no biologic effects

Q: What about the “AEs judged possibly related to study drug” value ([11]; human) of the same molecule?
A: 21/39

Q: And the “AEs judged probably related to study drug” value ([11]; human)?
A: 3/39

Q: And the “AEs rated as moderate in severity” value ([11]; human)?
A: 16/39

Q: What about the Total adverse events ([11]; human) of the same molecule?
A: 39

Q: What about the “AEs reported as severe” value [11] of the same molecule?
A: No AEs were reported as severe

Q: What about the “Relationship between frequency or severity of AEs and dose” value [11] of the same molecule?
A: no relationship

Q: And the “CNS concentration relative to plasma levels” value [12]?
A: approximately half

Q: And the “Effects on arousal and vigilance” value (healthy volunteers; 32 mg dose vs placebo)?
A: no effect; also recorded: no noticeable CNS-stimulating effects

Q: And the “Effects on arousal and vigilance” value (healthy volunteers; single dose 64 mg vs placebo)?
A: greater than those observed with placebo; also recorded: only mild stimulant-like effects

Q: And the “Effect on airway compliance and/or pulmonary function” value (ADHD adults [13]; FEV 25-75 at four hour post-dose)?
A: minimal or no effect

Q: What about the “Change in forced expiratory volume in 1 second (FEV) from baseline” value (ADHD adults [13]; betahistine vs placebo (FIG. 4)) of the same molecule?
A: No clinically significant change

Q: What about the “Biologic half-life, mean” value [3] of the same molecule?
A: 5 hours

Q: And the “Biologic half-life, variability” value [3]?
A: 2-11 hours

Q: Which Hypothalamic histamine release [14] does the source give for `NC(=O)C[S+]([O-])C(c1ccccc1)c1ccccc1` (centres unmarked) [modafinil] here?
A: increase hypothalamic histamine release

Q: With `NNCCc1ccccc1` [phenelzine] as the molecule, how does the Cortisol levels (HPA axis [15]) read?
A: increases cortisol levels
